# Read-outs that look alike come from different tables or passages of the source.
# Assays:
# Test in all cases: Anti-bacterial activity (MIC), agar dilution
# Type in all cases: cell-based
# [1] = test system: Morganella morganii EP-14; settings: about 10^6 CFU/ml, 37° C.
# Protocol: (§1) MIC (μg/ml) were determined by an agar dilution method [Chemotherapy (Japan), 29, 76-79, 1981]. Overnight cultures of the bacterial strains in Mueller-Hinton broth were diluted to final concentration of about 10^6 CFU/ml, and 5 μl of each bacterial suspension was spotted onto Mueller-Hinton agar plates that contained twofold serial dilutions of antibiotics. MICs were measured after incubation for 18 hours at 37° C.
# [2] = test system: Ser. marcescens ES-75
# Protocol: as §1
# [3] = test system: Pseud. aeruginosa EP-01; settings: Pseud. aeruginosa EP-01, agar dilution, about 10^6 CFU/ml, 18 hours, 37° C.
# Protocol: as §1
# [4] = test system: Escher. coli NIHJ
# Protocol: as §1
# [5] = test system: Kleb. pneumoniae EK-6; settings: Kleb. pneumoniae EK-6, agar dilution, about 10^6 CFU/ml, 18 hours, 37° C.
# Protocol: as §1
# [6] = test system: Staph. aureus 209-P; settings: Staph. aureus 209-P, agar dilution, about 10^6 CFU/ml, 18 hours, 37° C.
# Protocol: as §1
# [7] = Morganella morganii, EP14, 18 h, read-out: MIC
# [8] = Serratia marcescens, ES75, 18 h, Ser. marcescens ES-75, agar dilution, about 10^6 CFU/ml, 18 hours, 37° C., read-out: MIC
# [9] = Pseudomonas aeruginosa, EP01, 18 h, read-out: MIC
# [10] = Escherichia coli, 18 h, Escher. coli NIHJ, agar dilution, about 10^6 CFU/ml, 18 hours, 37° C., read-out: MIC
# [11] = Klebsiella pneumoniae, EK6, 18 h, read-out: MIC
# [12] = Staphylococcus aureus, 209P, 18 h, read-out: MIC
# [13] = Ser. marcescens ES-75, agar dilution, about 10^6 CFU/ml, 18 hours, 37° C.
# [14] = Escher. coli NIHJ, agar dilution, about 10^6 CFU/ml, 18 hours, 37° C.
compound,measurement,setting,value
"C[N+]1(C/C=C/C2=C(C(=O)[O-])N3C(=O)[C@@H](NC(=O)/C(=N\OCF)c4nsc(N)n4)[C@H]3SC2)C[C@H](O)C[C@H]1CO (stereo partly drawn) [Example 8, 7β-[2-(5-Amino-1,2,4-thiadiazol-3-yl)-(Z)-2-fluoromethoxyiminoacetamido]-3-[(E)-3-(4R-hydroxy-2S-hydroxymethyl-1-methyl-1-pyrrolidinio)-1-propen-1-yl]-3-cephem-4-carboxylate]",MIC,[1]; [7],≤ 0.025 µg/mL
same,MIC,[2]; [8],≤ 0.025 µg/mL
same,MIC,[3]; [9],0.8 µg/mL
same,MIC,[4]; [10],≤ 0.025 µg/mL
same,MIC,[5]; [11],≤ 0.025 µg/mL
same,MIC,[6]; [12],0.2 µg/mL
"NC(=O)C[N+]1(C/C=C/C2=C(C(=O)[O-])N3C(=O)[C@@H](NC(=O)/C(=N\OCF)c4nsc(N)n4)[C@H]3SC2)CCC(O)C1 (stereo partly drawn) [Example 9-2, 7β-[2-(5-Amino-1,2,4-thiadiazol-3-yl)-(Z)-2-fluoromethoxyiminoacetamido]-3-[(E)-3-(1-carbamoylmethyl-3-hydroxy-1-pyrrolidinio)-1-propen-1-yl]-3-cephem-4-carboxylate]",MIC,[1]; 18 hours,≤ 0.025 µg/mL
same,MIC,[2]; [13],≤ 0.025 µg/mL
same,MIC,[3],0.8 µg/mL
same,MIC,[4]; [14],≤ 0.025 µg/mL
same,MIC,[5],≤ 0.025 µg/mL
same,MIC,[6],0.4 µg/mL
"NC(=O)C[N+]1(C/C=C/C2=C(C(=O)[O-])N3C(=O)[C@@H](NC(=O)/C(=N\OCF)c4nsc(N)n4)[C@H]3SC2)CCC(O)C1 (stereo partly drawn) [Example 9-3, 7β-[2-(5-Amino-1,2,4-thiadiazol-3-yl)-(Z)-2-fluoromethoxyiminoacetamido]-3-[(E)-3-(1-carbamoylmethyl-3-hydroxy-1-pyrrolidinio)-1-propen-1-yl]-3-cephem-4-carboxylate]",MIC,[1]; 18 hours,≤ 0.025 µg/mL
same,MIC,[2]; [13],≤ 0.025 µg/mL
same,MIC,[3],0.8 µg/mL
same,MIC,[4]; [14],≤ 0.025 µg/mL
same,MIC,[5],≤ 0.025 µg/mL
same,MIC,[6],0.4 µg/mL
N#CC[N+]1(C/C=C/C2=C(C(=O)[O-])N3C(=O)[C@@H](NC(=O)/C(=N\OCF)c4nsc(N)n4)[C@H]3SC2)CCCC1 [Example 14],MIC,[1]; [7],≤ 0.025 µg/mL
same,MIC,[2]; [8],0.05 µg/mL
same,MIC,[3]; [9],0.8 µg/mL
same,MIC,"[4]; Escherichia coli, 18 h",≤ 0.025 µg/mL
same,MIC,[5]; [11],≤ 0.025 µg/mL
same,MIC,[6]; [12],0.2 µg/mL
Nc1nc(/C(=N/OCF)C(=O)N[C@@H]2C(=O)N3C(C(=O)[O-])=C(/C=C/C[N+]4(CCO)CCC(O)C4)CS[C@H]23)ns1 (stereo partly drawn) [Example 15-1],MIC,[1]; [7],≤ 0.025 µg/mL
same,MIC,[2]; [8],≤ 0.025 µg/mL
same,MIC,[3]; [9],1.56 µg/mL
same,MIC,[4]; [10],0.05 µg/mL
same,MIC,[5]; [11],≤ 0.025 µg/mL
same,MIC,[6]; [12],0.4 µg/mL
Nc1nc(/C(=N/OCF)C(=O)N[C@@H]2C(=O)N3C(C(=O)[O-])=C(/C=C/C[N+]4(CCO)CCC(O)C4)CS[C@H]23)ns1 (stereo partly drawn) [Example 15-2],MIC,[1]; 18 hours,≤ 0.025 µg/mL
same,MIC,[2]; [13],≤ 0.025 µg/mL
same,MIC,[3],1.56 µg/mL
same,MIC,[4]; [14],≤ 0.025 µg/mL
same,MIC,[5],≤ 0.025 µg/mL
same,MIC,[6],0.4 µg/mL
Nc1nc(/C(=N/OCF)C(=O)N[C@@H]2C(=O)N3C(C(=O)[O-])=C(/C=C/C[N+]4(CCO)CCC[C@@H]4CO)CS[C@H]23)ns1 (stereo partly drawn) [Example 16],MIC,[1]; [7],≤ 0.025 µg/mL
same,MIC,[2]; [8],≤ 0.025 µg/mL
same,MIC,[3]; [9],0.8 µg/mL
same,MIC,[4]; [10],≤ 0.025 µg/mL
same,MIC,[5]; [11],≤ 0.025 µg/mL
same,MIC,[6]; [12],0.2 µg/mL
NC(=O)C[N+]1(C/C=C/C2=C(C(=O)[O-])N3C(=O)[C@@H](NC(=O)/C(=N\OCF)c4nsc(N)n4)[C@H]3SC2)CCC[C@@H]1CO (stereo partly drawn) [Example 17],MIC,[1]; [7],≤ 0.025 µg/mL
same,MIC,[2]; [8],≤ 0.025 µg/mL
same,MIC,[3]; [9],0.8 µg/mL
same,MIC,[4]; [10],≤ 0.025 µg/mL
same,MIC,[5]; [11],≤ 0.025 µg/mL
same,MIC,[6]; [12],0.4 µg/mL
NC(=O)C[N+]1(C/C=C/C2=C(C(=O)[O-])N3C(=O)[C@@H](NC(=O)/C(=N\OCF)c4nsc(N)n4)[C@H]3SC2)CCCC1 [Example 19],MIC,[1]; [7],≤ 0.025 µg/mL
same,MIC,"[2]; Serratia marcescens, ES75, 18 h",0.5 µg/mL
same,MIC,[3]; [9],0.8 µg/mL
same,MIC,[4]; [10],≤ 0.025 µg/mL
same,MIC,[5]; [11],≤ 0.025 µg/mL
same,MIC,[6]; [12],0.2 µg/mL
Nc1nc(/C(=N/OCF)C(=O)N[C@@H]2C(=O)N3C(C(=O)[O-])=C(/C=C/C[N+]4(CCO)CCCC4)CS[C@H]23)ns1 [Example 20],MIC,[1]; [7],≤ 0.025 µg/mL
same,MIC,[2]; [8],0.05 µg/mL
same,MIC,[3]; [9],1.56 µg/mL
same,MIC,[4]; [10],≤ 0.025 µg/mL
same,MIC,[5]; [11],≤ 0.025 µg/mL
same,MIC,[6]; [12],0.2 µg/mL
NCC[N+]1(C/C=C/C2=C(C(=O)[O-])N3C(=O)[C@@H](NC(=O)/C(=N\OCF)c4nsc(N)n4)[C@H]3SC2)CCCC1 [Example 22],MIC,[1]; [7],0.05 µg/mL
same,MIC,[2]; [8],0.2 µg/mL
same,MIC,[3]; [9],3.13 µg/mL
same,MIC,[4]; [10],0.05 µg/mL
same,MIC,[5]; [11],0.05 µg/mL
same,MIC,[6]; [12],0.2 µg/mL
C[N+]1(C/C=C/C2=C(C(=O)[O-])N3C(=O)[C@@H](NC(=O)/C(=N\OCF)c4nsc(N)n4)[C@H]3SC2)CCN(C=O)CC1 [Example 24],MIC,[1]; [7],≤ 0.025 µg/mL
same,MIC,[2]; [8],≤ 0.025 µg/mL
same,MIC,[3]; [9],1.56 µg/mL
same,MIC,[4]; [10],≤ 0.025 µg/mL
same,MIC,[5]; [11],≤ 0.025 µg/mL
same,MIC,[6]; [12],0.2 µg/mL
CC(=N)N1CC[N+](C)(C/C=C/C2=C(C(=O)[O-])N3C(=O)[C@@H](NC(=O)/C(=N\OCF)c4nsc(N)n4)[C@H]3SC2)CC1 [Example 26],MIC,[1]; [7],0.1 µg/mL
same,MIC,[2]; [8],0.4 µg/mL
same,MIC,[3]; [9],0.8 µg/mL
same,MIC,[4]; [10],0.1 µg/mL
same,MIC,[5]; [11],0.1 µg/mL
same,MIC,[6]; [12],0.2 µg/mL
Nc1nc(/C(=N/OCF)C(=O)N[C@@H]2C(=O)N3C(C(=O)[O-])=C(/C=C/C[N+]4(CCO)CCN(CCO)CC4)CS[C@H]23)ns1 [Example 27],MIC,[1]; [7],0.05 µg/mL
same,MIC,[2]; [8],0.1 µg/mL
same,MIC,[3]; [9],1.56 µg/mL
same,MIC,[4]; [10],0.05 µg/mL
same,MIC,[5]; [11],≤ 0.025 µg/mL
same,MIC,[6]; [12],0.4 µg/mL
NC(=O)N1CC[N+](C/C=C/C2=C(C(=O)[O-])N3C(=O)[C@@H](NC(=O)/C(=N\OCF)c4nsc(N)n4)[C@H]3SC2)(CCO)CC1 [Example 28],MIC,[1]; [7],0.05 µg/mL
same,MIC,[2]; [8],0.2 µg/mL
same,MIC,[3]; [9],1.56 µg/mL
same,MIC,[4]; [10],0.05 µg/mL
same,MIC,[5]; [11],0.05 µg/mL
same,MIC,[6]; [12],0.4 µg/mL
Nc1nc(/C(=N/OCF)C(=O)N[C@@H]2C(=O)N3C(C(=O)[O-])=C(/C=C/C[N+]4(CCO)CCN(S(N)(=O)=O)CC4)CS[C@H]23)ns1 [Example 29],MIC,[1]; [7],≤ 0.025 µg/mL
same,MIC,[2]; [8],0.1 µg/mL
same,MIC,[3]; [9],0.8 µg/mL
same,MIC,[4]; [10],≤ 0.025 µg/mL
same,MIC,[5]; [11],≤ 0.025 µg/mL
same,MIC,[6]; [12],0.4 µg/mL
NC(=O)N1CC[N+](C/C=C/C2=C(C(=O)[O-])N3C(=O)[C@@H](NC(=O)/C(=N\OCF)c4nsc(N)n4)[C@H]3SC2)(CC(O)CO)CC1 (stereo partly drawn) [Example 30],MIC,[1]; [7],0.05 µg/mL
same,MIC,[2]; [8],0.2 µg/mL
same,MIC,[3]; [9],1.56 µg/mL
same,MIC,[4]; [10],0.05 µg/mL
same,MIC,[5]; [11],0.05 µg/mL
same,MIC,[6]; [12],0.4 µg/mL
NC(=O)C[N+]1(C/C=C/C2=C(C(=O)[O-])N3C(=O)[C@@H](NC(=O)/C(=N\OCF)c4nsc(N)n4)[C@H]3SC2)CCN(C(N)=O)CC1 [Example 31],MIC,[1]; [7],≤ 0.025 µg/mL
same,MIC,[2]; [8],0.1 µg/mL
same,MIC,[3]; [9],1.56 µg/mL
same,MIC,[4]; [10],0.05 µg/mL
same,MIC,[5]; [11],≤ 0.025 µg/mL
same,MIC,[6]; [12],0.4 µg/mL
NC(=O)NCC[N+]1(C/C=C/C2=C(C(=O)[O-])N3C(=O)[C@@H](NC(=O)/C(=N\OCF)c4nsc(N)n4)[C@H]3SC2)CCN(C(N)=O)CC1 [Example 32],MIC,[1]; [7],≤ 0.025 µg/mL
same,MIC,[2]; [8],0.05 µg/mL
same,MIC,[3]; [9],1.56 µg/mL
same,MIC,[4]; [10],≤ 0.025 µg/mL
same,MIC,[5]; [11],≤ 0.025 µg/mL
same,MIC,[6]; [12],0.2 µg/mL
NC(=O)C[N+]1(C/C=C/C2=C(C(=O)[O-])N3C(=O)[C@@H](NC(=O)/C(=N\OCF)c4nsc(N)n4)[C@H]3SC2)CCOCC1 [Example 35],MIC,[1]; [7],0.05 µg/mL
same,MIC,[2]; [8],0.1 µg/mL
same,MIC,[3]; [9],0.8 µg/mL
same,MIC,[4]; [10],0.05 µg/mL
same,MIC,[5]; [11],≤ 0.025 µg/mL
same,MIC,[6]; [12],0.4 µg/mL
NC(=O)NCC[N+]1(C/C=C/C2=C(C(=O)[O-])N3C(=O)[C@@H](NC(=O)/C(=N\OCF)c4nsc(N)n4)[C@H]3SC2)CCOCC1 [Example 36],MIC,[1]; [7],0.05 µg/mL
same,MIC,[2]; [8],0.1 µg/mL
same,MIC,[3]; [9],1.56 µg/mL
same,MIC,[4]; [10],0.05 µg/mL
same,MIC,[5]; [11],≤ 0.025 µg/mL
same,MIC,[6]; [12],0.2 µg/mL

# Reference: patent US4921850A, “3-propenylcephem derivative” (Eisai Co., Ltd., priority 1986, dated 1990)
